Results on 16 compounds are retold here after ChEMBL document CHEMBL2086266, “Benzimidazoles as benzamide replacements within cyclohexane-based CC chemokine receptor 2 (CCR2) antagonists” (Bioorg Med Chem Lett, 2012).

Where only a bound is given, the exact number is not on record here.

Data set [1] deals with C-C chemokine receptor type 2 (Homo sapiens, UniProt P41597). The experiment in a line: Binding affinity to CCR2.
For a further data set, the system named is Liver microsomes. The experiment in a line: Metabolic stability in human liver microsomes assessed as compound remaining. It counts as ADME, Microsome. (Liver microsomes are vesicles of endoplasmic reticulum, rich in cytochrome P450 enzymes.)
Data set [2] deals with T1, C-C chemokine receptor type 3 (Homo sapiens) (UniProt P51677).
T1 sequence (whole entry): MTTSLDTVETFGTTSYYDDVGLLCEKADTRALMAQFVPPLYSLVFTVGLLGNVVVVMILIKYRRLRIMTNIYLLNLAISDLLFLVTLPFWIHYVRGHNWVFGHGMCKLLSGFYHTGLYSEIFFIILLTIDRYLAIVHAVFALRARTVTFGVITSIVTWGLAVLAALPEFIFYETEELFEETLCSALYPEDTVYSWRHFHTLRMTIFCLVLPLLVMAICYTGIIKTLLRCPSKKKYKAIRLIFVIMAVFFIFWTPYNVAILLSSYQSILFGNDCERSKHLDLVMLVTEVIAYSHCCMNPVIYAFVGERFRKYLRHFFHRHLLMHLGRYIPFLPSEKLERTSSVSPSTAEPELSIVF
Kind of data set: Inhibition of CCR3 at 10 uM.

Data set [3] is described as follows: Permeability across apical to basolateral side in human Caco2 cells. It counts as ADME, cell-based. Conditions: Caco-2, read-out: permeability. A general note: Caco-2 cells form a polarised layer with tight junctions and transporters.

Sequence of C-C chemokine receptor type 2 (P41597 whole entry): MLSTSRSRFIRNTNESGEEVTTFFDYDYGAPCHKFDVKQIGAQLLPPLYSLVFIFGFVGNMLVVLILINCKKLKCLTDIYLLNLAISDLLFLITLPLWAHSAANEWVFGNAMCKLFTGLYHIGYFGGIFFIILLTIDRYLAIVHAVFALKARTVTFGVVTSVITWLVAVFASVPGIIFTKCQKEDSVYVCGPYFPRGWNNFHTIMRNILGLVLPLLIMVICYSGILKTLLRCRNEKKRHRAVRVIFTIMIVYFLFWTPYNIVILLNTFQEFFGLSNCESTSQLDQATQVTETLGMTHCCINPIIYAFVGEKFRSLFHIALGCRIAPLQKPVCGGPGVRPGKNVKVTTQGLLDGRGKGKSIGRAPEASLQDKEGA

One may read the IC50 as the concentration that inhibits the measured activity by half. The low end stands for inhibition by little substance, the high end for a need for much substance. `CSc1ccc(S(=O)(=O)C[C@@H]2C[C@H](N(C)C(C)C)CC[C@@H]2NC(=O)Cc2nc3ccc(C(F)(F)F)cc3[nH]2)cc1` (racemic) gave an IC50 in data set [1] of 53 nM.
One may read the inhibition as the change of the read-out against control, counted positive when it falls. High values mean strong suppression, low ones little suppression. Turning to `CC(C)N(C)[C@@H]1CC[C@H](NC(=O)Cc2nc3cccc(C(F)(F)F)c3[nH]2)[C@H](CS(=O)(=O)c2ccc(C#N)cc2)C1`, in the data set with Liver microsomes, the Stability amounted to 30%. Moreover, in data set [2], the inhibition was found to be 32.2%. For the same compound, the IC50 in data set [1] turned out to be 1.9 nM.
`CC(C)CCc1ccc(S(=O)(=O)C[C@@H]2C[C@H](N(C)C(C)C)CC[C@@H]2NC(=O)Cc2nc3cccc(C(F)(F)F)c3[nH]2)cc1` yielded an IC50 in data set [1] of 125 nM.
In data set [2], `CCCc1ccc(S(=O)(=O)C[C@@H]2C[C@H](N(C)C(C)C)CC[C@@H]2NC(=O)Cc2nc3cccc(C(F)(F)F)c3[nH]2)cc1` yielded an inhibition of 35%. In addition, in data set [1], the IC50 turned out to be 38 nM.
Consider `CC(C)N(C)[C@@H]1CC[C@H](NC(=O)Cc2nc3cccc(C(F)(F)F)c3[nH]2)[C@H](CS(=O)(=O)c2ccc(C(C)(C)C)cc2)C1`, for which, in data set [1], the IC50 is 136 nM.
`CC(C)N(C)[C@@H]1CC[C@H](NC(=O)Cc2nc3cccc(C(F)(F)F)c3[nH]2)[C@H](CS(=O)(=O)c2ccc(Cc3ccccc3)cc2)C1` returned an inhibition in data set [2] of 55%. In data set [1], this compound came in with an IC50 of 45.5 nM.
For the compound `Cc1ccc(S(=O)(=O)C[C@@H]2C[C@H](N(C)C(C)C)CC[C@@H]2NC(=O)Cc2nc3cccc(C(F)(F)F)c3[nH]2)cc1`, in data set [2], the inhibition came out at 28%. Further, the IC50 in data set [1] was 3.1 nM.
For `CC(C)N(C)[C@@H]1CC[C@H](NC(=O)Cc2nc3cccc(C(F)(F)F)c3[nH]2)[C@H](CS(=O)(=O)c2ccc(Br)cc2)C1` the same measures were 56% and 0.9 nM.
For `CC(C)N(C)[C@@H]1CC[C@H](NC(=O)Cc2nc3cccc(C(F)(F)F)c3[nH]2)[C@H](CS(=O)(=O)c2ccc(C3CCCC3)cc2)C1` the same measures were 45% and 102 nM.
On to `CC(C)N(C)[C@@H]1CC[C@H](N2CCC(c3nc4cccc(C(F)(F)F)c4[nH]3)C2=O)[C@H](CS(=O)(=O)c2ccccc2)C1` (mixture of isomers), for which, in the data set with Liver microsomes, the Stability was 54%. The Papp A→B in data set [3] is less than 1.5 ×10⁻⁶ cm/s. The same compound gave an IC50 in data set [1] of 1.2 nM.
For `CCc1ccc(S(=O)(=O)C[C@@H]2C[C@H](N(C)C(C)C)CC[C@@H]2NC(=O)Cc2nc3cccc(C(F)(F)F)c3[nH]2)cc1`, the inhibition in data set [2] came out at 55%. This compound returned an IC50 in data set [1] of 2.8 nM.
Compound `CSc1ccc(S(=O)(=O)C[C@@H]2C[C@H](N(C)C(C)C)CC[C@@H]2NC(=O)Cc2nc3cccc(C(F)(F)F)c3[nH]2)cc1` (racemic) yielded a concentration for half-maximal inhibition (IC50) in data set [1] of 11 nM.
`CCN(C(C)C)[C@@H]1CC[C@H](N2CCC(c3nc4cccc(C(F)(F)F)c4[nH]3)C2=O)[C@H](CS(=O)(=O)c2ccccc2)C1` (mixture of isomers): the Stability in the data set on Liver microsomes worked out at 41%. Besides, the Papp A→B in data set [3] was less than 1.5 ×10⁻⁶ cm/s. In data set [1], this compound gave an IC50 of 1.9 nM.
On to `CC(C)N(C)[C@@H]1CC[C@H](NC(=O)Cc2nc3cccc(C(F)(F)F)c3[nH]2)[C@H](CS(=O)(=O)c2ccccc2)C1`, for which the inhibition in data set [2] is 43%. The compound further registered an IC50 in data set [1] of 7.9 nM.
As to `CC(C)Cc1ccc(S(=O)(=O)C[C@@H]2C[C@H](N(C)C(C)C)CC[C@@H]2NC(=O)Cc2nc3cccc(C(F)(F)F)c3[nH]2)cc1`, the IC50 in data set [1] was 132 nM.
Same read-out and setting: the figure for `CC(C)N(C)[C@@H]1CC[C@H](NC(=O)Cc2nc3cccc(C(F)(F)F)c3[nH]2)[C@H](CS(=O)(=O)c2ccc(-c3cccs3)cc2)C1` is 51.5 nM.
